Patent US20230085307A1, “PYRIDAZINONE COMPOUND AND HERBICIDE” (NISSAN CHEMICAL CORPORATION, priority 2019, published 2023)

What was measured:
[1] = tested on: green foxtail; test: Test Example 4: herbicidal effect by soil treatment (Table 19, symbol G); assay type: in vivo, green foxtail (Setaria viridis); conditions: AAH 320 g/ha
Method in brief: (§1)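 Soil-surface application: an emulsion agent diluted with water to the predetermined dose is sprayed uniformly over seeds lying under roughly 1.5 cm of sterilized diluvial soil. Boxes stay in a greenhouse at 25° C. to 30° C. Three weeks later, each species is graded on previously defined criteria.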

[2] = tested on: barnyard grass; test: Test Example 5: herbicidal effect by foliage application, plastic box (Table 20, symbol H); assay type: in vivo, barnyard grass (Echinochloa crus-galli); conditions: foliage application, AAH 320 g/ha, three weeks after application
Method in brief: (§2)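 Sow seeds spot-wise in sterilized diluvial soil; cover with ~1.5 cm soil. Grow 14 days in greenhouse, 25° C. to 30° C. Spray foliage with emulsion diluted to predetermined amount. Rate effect after 3 weeks.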

[3] = tested on: Italian ryegrass; test: Test Example 4: herbicidal effect by soil treatment (Table 19, symbol K); assay type: in vivo, Italian ryegrass (Lolium multiflorum); conditions: AAH 320 g/ha
Method in brief: as §1

[4] = tested on: chickweed; test: Test Example 5: herbicidal effect by foliage application, plastic box (Table 20, symbol P); assay type: in vivo, common chickweed (Stellaria media); conditions: foliage application, AAH 320 g/ha, three weeks after application
Method in brief: as §2

[5] = tested on: rice flat sedge; test: Test Example 3: herbicidal effect by foliage application, Wagner pot (Table 18, symbol E); assay type: in vivo, rice flat sedge (Cyperus iria); conditions: 320 g/ha
Method in brief: (§3)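 Plants were sown in alluvial soil held under 0.1–0.5 cm standing water and grown 14 days in a greenhouse at 25–30 °C. An emulsifiable formulation, water-diluted to the set dose, was then sprayed onto the foliage, and effects were scored three weeks later using previously defined criteria.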

[6] = tested on: lambsquarters; test: Test Example 5: herbicidal effect by foliage application, plastic box (Table 20, symbol O); assay type: in vivo, lambsquarters (Chenopodium album); conditions: foliage application, AAH 320 g/ha, three weeks after application
Method in brief: as §2

[7] = tested on: barnyard grass; test: Test Example 4: herbicidal effect by soil treatment (Table 19, symbol H); assay type: in vivo, barnyard grass (Echinochloa crus-galli); conditions: AAH 320 g/ha
Method in brief: as §1

[8] = tested on: chickweed; test: Test Example 4: herbicidal effect by soil treatment (Table 19, symbol P); assay type: in vivo, common chickweed (Stellaria media); conditions: AAH 320 g/ha
Method in brief: as §1

[9] = tested on: southern crabgrass; test: Test Example 5: herbicidal effect by foliage application, plastic box (Table 20, symbol F); assay type: in vivo, southern crabgrass (Digitaria ciliaris); conditions: foliage application, AAH 320 g/ha, three weeks after application
Method in brief: as §2

[10] = tested on: Chinese sprangletop; test: Test Example 3: herbicidal effect by foliage application, Wagner pot (Table 18, symbol D); assay type: in vivo, chinese sprangletop (Leptochloa chinensis); conditions: 320 g/ha
Method in brief: as §3

[11] = tested on: persian speedwell; test: Test Example 5: herbicidal effect by foliage application, plastic box (Table 20, symbol R); assay type: in vivo, Persian speedwell (Veronica persica); conditions: foliage application, AAH 320 g/ha, three weeks after application
Method in brief: as §2

[12] = tested on: wild oat; test: Test Example 5: herbicidal effect by foliage application, plastic box (Table 20, symbol I); assay type: in vivo, wild oat (Avena fatua); conditions: foliage application, AAH 320 g/ha, three weeks after application
Method in brief: as §2

[13] = tested on: lambsquarters; test: Test Example 4: herbicidal effect by soil treatment (Table 19, symbol O); assay type: in vivo, lambsquarters (Chenopodium album); conditions: AAH 320 g/ha
Method in brief: as §1

[14] = tested on: wild oat; test: Test Example 4: herbicidal effect by soil treatment (Table 19, symbol I); assay type: in vivo, wild oat (Avena fatua); conditions: AAH 320 g/ha
Method in brief: as §1

[15] = tested on: green foxtail; test: Test Example 5: herbicidal effect by foliage application, plastic box (Table 20, symbol G); assay type: in vivo, green foxtail (Setaria viridis); conditions: foliage application, AAH 320 g/ha, three weeks after application
Method in brief: as §2

[16] = tested on: barnyard grass; test: Test Example 3: herbicidal effect by foliage application, Wagner pot (Table 18, symbol H); assay type: in vivo, barnyard grass (Echinochloa crus-galli); conditions: 320 g/ha
Method in brief: as §3

[17] = tested on: windgrass; test: Test Example 5: herbicidal effect by foliage application, plastic box (Table 20, symbol L); assay type: in vivo, windgrass (Apera spica-venti); conditions: foliage application, AAH 320 g/ha, three weeks after application
Method in brief: as §2

[18] = tested on: persian speedwell; test: Test Example 4: herbicidal effect by soil treatment (Table 19, symbol R); assay type: in vivo, Persian speedwell (Veronica persica); conditions: AAH 320 g/ha
Source text: [Test Example 4] Herbicidal Effect Test by Soil Treatment
Sterilized diluvial soil was placed in a plastic box having a length of 21 cm, a width of 13 cm, and a depth of 7 cm. The seeds of each of southern crabgrass, green foxtail, barnyard grass, wild oat, blackgrass, Italian ryegrass, windgrass, velvetleaf, redroot pigweed, lambsquarters, chickweed, false cleavers, persian speedwell, corn, soybean, rice, wheat, beet, and rapeseed were sowed in a spot-like manner and covered with the soil having a thickness of about 1.5 cm. Subsequently, the emulsion agent of the compound of the present invention prepared according to Formulation Example 2 was diluted with water so as to achieve a predetermined herbicide amount, and the diluted emulsion agent was uniformly applied to the surface of the soil with a small-sized spray. The plastic box was placed in a greenhouse at 25° C. to 30° C. for growth of the plants. Three weeks after the herbicide application, the effect of the herbicide on each plant was evaluated according to the criteria of Test Example 1.

[19] = tested on: blackgrass; test: Test Example 5: herbicidal effect by foliage application, plastic box (Table 20, symbol J); assay type: in vivo, blackgrass (Alopecurus myosuroides); conditions: foliage application, AAH 320 g/ha, three weeks after application
Method in brief: as §2

[20] = tested on: velvetleaf; test: Test Example 5: herbicidal effect by foliage application, plastic box (Table 20, symbol M); assay type: in vivo, velvetleaf (Abutilon theophrasti); conditions: foliage application, AAH 320 g/ha, three weeks after application
Method in brief: as §2

[21] = tested on: southern crabgrass; test: Test Example 4: herbicidal effect by soil treatment (Table 19, symbol F); assay type: in vivo, southern crabgrass (Digitaria ciliaris); conditions: AAH 320 g/ha
Method in brief: as §1

[22] = tested on: redroot pigweed; test: Test Example 4: herbicidal effect by soil treatment (Table 19, symbol N); assay type: in vivo, redroot pigweed (Amaranthus retroflexus); conditions: AAH 320 g/ha
Method in brief: as §1

[23] = tested on: Italian ryegrass; test: Test Example 5: herbicidal effect by foliage application, plastic box (Table 20, symbol K); assay type: in vivo, Italian ryegrass (Lolium multiflorum); conditions: foliage application, AAH 320 g/ha, three weeks after application
Method in brief: as §2

[24] = tested on: redroot pigweed; test: Test Example 5: herbicidal effect by foliage application, plastic box (Table 20, symbol N); assay type: in vivo, redroot pigweed (Amaranthus retroflexus); conditions: foliage application, AAH 320 g/ha, three weeks after application
Method in brief: as §2

[25] = tested on: velvetleaf; test: Test Example 4: herbicidal effect by soil treatment (Table 19, symbol M); assay type: in vivo, velvetleaf (Abutilon theophrasti); conditions: AAH 320 g/ha
Method in brief: as §1

CCCC(=O)Oc1c(C)nn(C)c(=O)c1-c1c(-c2ccc(C(F)(F)F)cc2OC)sc2ccccc12 [1-156]
G: green foxtail, herbicidal effect rating [1]: 0 (Herbicidal rate of 5% or less (almost no effect)) | H: barnyard grass, herbicidal effect [2]: 1 (Herbicidal rate of 5% or more and less than 20%) | K: Italian ryegrass, herbicidal effect rating [3]: 3 (Herbicidal rate of 40% or more and less than 70%) | P: chickweed, herbicidal effect [4]: 5 (Herbicidal rate of 90% or more (almost completely withered)) | herbicidal effect on E (rice flat sedge), rating 0-5 [5]: 3 (Herbicidal rate of 40% or more and less than 70%) | O: lambsquarters, herbicidal effect [6]: 2 (Herbicidal rate of 20% or more and less than 40%) | H: barnyard grass, herbicidal effect rating [7]: 0 (Herbicidal rate of 5% or less (almost no effect)) | P: chickweed, herbicidal effect rating [8]: 0 (Herbicidal rate of 5% or less (almost no effect)) | F: southern crabgrass, herbicidal effect [9]: 0 (Herbicidal rate of 5% or less (almost no effect)) | herbicidal effect on D (Chinese sprangletop), rating 0-5 [10]: 3 (Herbicidal rate of 40% or more and less than 70%) | R: persian speedwell, herbicidal effect [11]: 3 (Herbicidal rate of 40% or more and less than 70%) | I: wild oat, herbicidal effect [12]: 3 (Herbicidal rate of 40% or more and less than 70%) | O: lambsquarters, herbicidal effect rating [13]: 3 (Herbicidal rate of 40% or more and less than 70%) | I: wild oat, herbicidal effect rating [14]: 0 (Herbicidal rate of 5% or less (almost no effect)) | G: green foxtail, herbicidal effect [15]: 3 (Herbicidal rate of 40% or more and less than 70%) | herbicidal effect on H (barnyard grass), rating 0-5 [16]: 3 (Herbicidal rate of 40% or more and less than 70%) | L: windgrass, herbicidal effect [17]: 5 (Herbicidal rate of 90% or more (almost completely withered)) | R: persian speedwell, herbicidal effect rating [18]: 0 (Herbicidal rate of 5% or less (almost no effect)) | J: blackgrass, herbicidal effect [19]: 0 (Herbicidal rate of 5% or less (almost no effect)) | M: velvetleaf, herbicidal effect [20]: 0 (Herbicidal rate of 5% or less (almost no effect)) | F: southern crabgrass, herbicidal effect rating [21]: 0 (Herbicidal rate of 5% or less (almost no effect)) | N: redroot pigweed, herbicidal effect rating [22]: 0 (Herbicidal rate of 5% or less (almost no effect)) | K: Italian ryegrass, herbicidal effect [23]: 4 (Herbicidal rate of 70% or more and less than 90%) | N: redroot pigweed, herbicidal effect [24]: 3 (Herbicidal rate of 40% or more and less than 70%) | M: velvetleaf, herbicidal effect rating [25]: 0 (Herbicidal rate of 5% or less (almost no effect))
